pEC50: −log10 of the molar value.

As usually defined, the EC50 is the concentration needed to bring the measured effect to its halfway point.

In one test the test system is NL-RLuc virus (recombinant HIV NL4-3 proviral clone with Renilla Luciferase) in MT-2 cells. Briefly: Inhibition of HIV Replication (NL-RLuc luciferase reporter virus, MT-2 cells). It counts as cell-based. Particulars: MT2, 120 h, read-out: Activity. The source says:
Inhibition of HIV Replication:
A recombinant NL-RLuc proviral clone was constructed in which a section of the nef gene from NL4-3 was replaced with the Renilla Luciferase gene. This virus is fully infectious and can undergo multiple cycles of replication in cell culture. In addition, the luciferous reporter provides a simple and easy method for quantitating the extent of virus growth and consequently, the antiviral activity of test compounds. The plasmid pNLRLuc contains the proviral NL-Rluc DNA cloned into pUC 18 at the PvuII site. The NL-RLuc virus was prepared by transfection of 293T cells with the plasmid pNLRLuc. Transfections were performed using the LipofectAMINE PLUS kit from Invitrogen (Carlsbad, Calif.) according to the manufacturer and the virus generated was titered in MT-2 cells. For susceptibility analyses, the titrated virus was used to infect MT-2 cells in the presence of compound, and after 5 days of incubation, cells were processed and quantitated for virus growth by the amount of expressed luciferase. Assay media was RPMI 1640 supplemented with 10% heat inactivated fetal bovine serum (FBS), 100 units/ml penicillin G/100 units/ml streptomycin, 10 mM HEPES buffer pH 7.55 and 2 mM L-glutamine. The results from at least 2 experiments were used to calculate the EC50 values. Luciferase was quantitated using the Dual Luciferase kit from Promega (Madison, Wis.). Susceptibility of viruses to compounds was determined by incubation in the presence of serial dilutions of the compound. The 50% effective concentration (EC50) was calculated by using the exponential form of the median effect equation where (Fa)=1/[1+(ED50/drug conc.)^m](Johnson V A, Byington R T. Infectivity Assay. In Techniques in HIV Research. ed. Aldovini A, Walker B D. 71-76. New York: Stockton Press. 1990). Activity equal to A refers to a compound having an EC50≤100 nM, while B and C denote compounds having an EC50 between 100 nM and 1 uM (B) or >1 uM (C).
Turning to `Cc1nc(C)c([C@H](OC(C)(C)C)C(=O)O)c(N2CCC(C)(C)CC2)c1-c1ccc(CN(Cc2ccc(F)cc2)C(=O)C(C)C)cc1` [Example 23, (S)-2-(tert-butoxy)-2-(4-(4,4-dimethylpiperidin-1-yl)-5-(4-((N-(4-fluorobenzyl)isobutyramido)methyl)phenyl)-2,6-dimethylpyridin-3-yl)acetic acid], the pEC50 is greater than 7.00.

`CC(=O)N(Cc1ccc(F)cc1)Cc1ccc(-c2c(C)nc(C)c([C@H](OC(C)(C)C)C(=O)O)c2N2CCC(C)(C)CC2)cc1` [Example 24, (S)-2-(tert-butoxy)-2-(4-(4,4-dimethylpiperidin-1-yl)-5-(4-((N-(4-fluorobenzyl)acetamido)methyl)phenyl)-2,6-dimethylpyridin-3-yl)acetic acid]: the pEC50 is greater than 7.00.

`Cc1nc(C)c([C@H](OC(C)(C)C)C(=O)O)c(N2CCC(C)(C)CC2)c1-c1ccc(CN(Cc2ccc(F)cc2)C(=O)C(C)(C)C)cc1` [Example 25, (S)-2-(tert-butoxy)-2-(4-(4,4-dimethylpiperidin-1-yl)-5-(4-((N-(4-fluorobenzyl)pivalamido)methyl)phenyl)-2,6-dimethylpyridin-3-yl)acetic acid]: the pEC50 is greater than 7.00.

Turning to `COc1ccccc1C(=O)N(Cc1ccc(F)cc1)Cc1ccc(-c2c(C)nc(C)c([C@H](OC(C)(C)C)C(=O)O)c2N2CCC(C)(C)CC2)cc1` [Example 26, (S)-2-(tert-butoxy)-2-(4-(4,4-dimethylpiperidin-1-yl)-5-(4-((N-(4-fluorobenzyl)-2-methoxybenzamido)methyl)phenyl)-2,6-dimethylpyridin-3-yl)acetic acid], the pEC50 is greater than 7.00.

In the case of `Cc1nc(C)c([C@H](OC(C)(C)C)C(=O)O)c(N2CCC(C)(C)CC2)c1-c1ccc(CN(Cc2ccc(F)cc2)C(=O)c2ccccc2F)cc1` [Example 27, (S)-2-(tert-butoxy)-2-(4-(4,4-dimethylpiperidin-1-yl)-5-(4-((2-fluoro-N-(4-fluorobenzyl)benzamido)methyl)phenyl)-2,6-dimethylpyridin-3-yl)acetic acid], the pEC50 was greater than 7.00.

For `Cc1nc(C)c([C@H](OC(C)(C)C)C(=O)O)c(N2CCC(C)(C)CC2)c1-c1ccc(CN(Cc2ccc(F)cc2)C(=O)c2ccc(F)cc2)cc1` [Example 28, (S)-2-(tert-butoxy)-2-(4-(4,4-dimethylpiperidin-1-yl)-5-(4-((4-fluoro-N-(4-fluorobenzyl)benzamido)methyl)phenyl)-2,6-dimethylpyridin-3-yl)acetic acid], the pEC50 is greater than 7.00.

With `Cc1cc(C(=O)N(Cc2ccc(F)cc2)Cc2ccc(-c3c(C)nc(C)c([C@H](OC(C)(C)C)C(=O)O)c3N3CCC(C)(C)CC3)cc2)c(C)o1` [Example 29, (S)-2-(terr-butoxy)-2-(4-(4,4-dimethylpiperidin-1-yl)-5-(4-((N-(4-fluorobenzyl)-2,5-dimethylfuran-3-carboxamido)methyl)phenyl)-2,6-dimethylpyridin-3-yl)acetic acid], the pEC50 is greater than 7.00.

Regarding `Cc1nc(C)c([C@H](OC(C)(C)C)C(=O)O)c(N2CCC(C)(C)CC2)c1-c1ccc(CN(Cc2ccc(F)cc2)C(=O)COc2ccccc2)cc1` [Example 30, (S)-2-(tert-butoxy)-2-(4-(4,4-dimethylpiperidin-1-yl)-5-(4-((N-(4-fluorobenzyl)-2-phenoxyacetamido)methyl)phenyl)-2,6-dimethylpyridin-3-yl)acetic acid], the pEC50 is 6.00 to 7.00.

Regarding `Cc1nc(C)c([C@H](OC(C)(C)C)C(=O)O)c(N2CCC(C)(C)CC2)c1-c1ccc(CN(Cc2ccc(F)cc2)C(=O)OCc2ccccc2)cc1` [Example 31, (S)-2-(5-(4-((((benzyloxy)carbonyl)(4-fluorobenzyl)amino)methyl)phenyl)-4-(4,4-dimethylpiperidin-1-yl)-2,6-dimethylpyridin-3-yl)-2-(tert-butoxy)acetic acid], the pEC50 is greater than 7.00.

Regarding `COC(=O)N(Cc1ccc(F)cc1)Cc1ccc(-c2c(C)nc(C)c([C@H](OC(C)(C)C)C(=O)O)c2N2CCC(C)(C)CC2)cc1` [Example 32, (S)-2-(tert-butoxy)-2-(4-(4,4-dimethylpiperidin-1-yl)-5-(4-(((4-fluorobenzyl)(methoxycarbonyl)amino)methyl)phenyl)-2,6-dimethylpyridin-3-yl)acetic acid], the pEC50 is greater than 7.00.

As to `CCOC(=O)N(Cc1ccc(F)cc1)Cc1ccc(-c2c(C)nc(C)c([C@H](OC(C)(C)C)C(=O)O)c2N2CCC(C)(C)CC2)cc1` [Example 33, (S)-2-(tert-butoxy)-2-(4-(4,4-dimethylpiperidin-1-yl)-5-(4-(((ethoxycarbonyl)(4 fluorobenzyl)amino)methyl)phenyl)-2,6-dimethylpyridin-3-yl)acetic acid], the pEC50 was greater than 7.00.

Consider `Cc1nc(C)c([C@H](OC(C)(C)C)C(=O)O)c(N2CCC(C)(C)CC2)c1-c1ccc(CN(Cc2ccc(F)cc2)S(C)(=O)=O)cc1` [Example 34, (S)-2-(tert-butoxy)-2-(4-(4,4-dimethylpiperidin-1-yl)-5-(4-((N-(4-fluorobenzyl)methylsulfonamido)methyl)phenyl)-2,6-dimethylpyridin-3-yl)acetic acid], for which the pEC50 is greater than 7.00.

`Cc1nc(C)c([C@H](OC(C)(C)C)C(=O)O)c(N2CCC(C)(C)CC2)c1-c1ccc(CN(Cc2ccc(F)cc2)C(=O)N2CCCC2)cc1` [Example 35, (S)-2-(tert-butoxy)-2-(4-(4,4-dimethylpiperidin-1-yl)-5-(4-((N-(4-fluorobenzyl)pyrrolidine-1-carboxamido)methyl)phenyl)-2,6-dimethylpyridin-3-yl)acetic acid]: the pEC50 is greater than 7.00.

On to `Cc1nc(C)c([C@H](OC(C)(C)C)C(=O)O)c(N2CCC(C)(C)CC2)c1-c1ccc(CN(Cc2ccc(F)cc2)S(=O)(=O)c2ccccc2)cc1` [Example 36, (S)-2-(tert-butoxy)-2-(4-(4,4-dimethylpiperidin-1-yl)-5-(4-((N-(4-fluorobenzyl)phenylsulfonamido)methyl)phenyl)-2,6-dimethylpyridin-3-yl)acetic acid], for which the pEC50 was greater than 7.00.

As for `COc1cccc(C(=O)N(Cc2ccc(F)cc2)Cc2ccc(-c3c(C)nc(C)c([C@H](OC(C)(C)C)C(=O)O)c3N3CCC(C)(C)CC3)cc2)c1` [Example 37, (S)-2-(tert-butoxy)-2-(4-(4,4-dimethylpiperidin-1-yl)-5-(4-((N-(4-fluorobenzyl)-3-methoxybenzamido)methyl)phenyl)-2,6-dimethylpyridin-3-yl)acetic acid], the pEC50 is greater than 7.00.

`Cc1nc(C)c([C@H](OC(C)(C)C)C(=O)O)c(N2CCC(C)(C)CC2)c1-c1ccc(CN(Cc2ccc(F)cc2)C(=O)c2cccc(C(F)(F)F)c2)cc1` [Example 38, (S)-2-(tert-butoxy)-2-(4-(4,4-dimethylpiperidin-1-yl)-5-(4-((N-(4-fluorobenzyl)-3-(trifluoromethyl)benzamio)methyl)phenyl)-2,6-dimethylpyridin-3-yl)acetic acid]: the pEC50 was greater than 7.00.

On to `Cc1nc(C)c([C@H](OC(C)(C)C)C(=O)O)c(N2CCC(C)(C)CC2)c1-c1ccc(CN(Cc2ccc(F)cc2)C(=O)c2ccccc2C(F)(F)F)cc1` [Example 39, (S)-2-(tert-butoxy)-2-(4-(4,4-dimethylpiperidin-1-yl)-5-(4-((N-(4-fluorobenzyl)-2-(trifluoromethyl)benzamido)methyl)phenyl)-2,6-dimethylpyridin-3-yl)acetic acid], for which the pEC50 was greater than 7.00.

The test is the same for the next values; noted with them: MT2, 120 h, read-out: EC50 μM.
Turning to `Cc1nc(C)c([C@H](OC(C)(C)C)C(=O)O)c(N2CCC(C)(C)CC2)c1-c1ccc(CN(Cc2ccc(F)cc2)C(=O)c2ccccc2F)cc1` [Example 27, (S)-2-(tert-butoxy)-2-(4-(4,4-dimethylpiperidin-1-yl)-5-(4-((2-fluoro-N-(4-fluorobenzyl)benzamido)methyl)phenyl)-2,6-dimethylpyridin-3-yl)acetic acid], the EC50 was 0.008 µM.

On to `Cc1nc(C)c([C@H](OC(C)(C)C)C(=O)O)c(N2CCC(C)(C)CC2)c1-c1ccc(CN(Cc2ccc(F)cc2)C(=O)COc2ccccc2)cc1` [Example 30, (S)-2-(tert-butoxy)-2-(4-(4,4-dimethylpiperidin-1-yl)-5-(4-((N-(4-fluorobenzyl)-2-phenoxyacetamido)methyl)phenyl)-2,6-dimethylpyridin-3-yl)acetic acid], for which the EC50 was found to be 0.118 µM.

The record behind these values is patent US20180170903A1, “PYRIDIN-3-YL ACETIC ACID DERIVATIVES AS INHIBITORS OF HUMAN IMMUNODEFICIENCY VIRUS REPLICATION” (ViiV HEALTHCARE UK (NO.5) LIMITED, priority 2015, published 2018).
